{
  "source": "patent US20070082819A1",
  "about": "(priority 2003, published 2007)",
  "tested_on": "eight representative weed species",
  "conditions": "in vivo",
  "data": [
    {"smiles": "CCCC[N+](CCCC)(CCCC)CCCC.[Br-]", "note": "[Tetrabutylammonium hyrobromide, tetrabutylammonium bromide]", "values": [
      {"measurement": "Mean Activity (%)", "value": 72, "unit": "%"}
    ]}
  ]
}
